According to publication PMC6128262 (Analytical chemistry, 2018):

Assays:
HpMTAN = conditions: read-out: Km value for AdoHcy (HpMTAN); previously measured; cited from earlier work
CIAP = conditions: read-out: Km value of ATP for CIAP; molybdenum blue based assay; cited from earlier work
[1] = tested on: N[C@@H](Cc1c[nH]cn1)C(=O)O; test: purified protein, by the assay type; conditions: pH 8.0; 25.0 °C

**Q.** For Nc1ncnc2c1ncn2[C@@H]1O[C@H](CSCC[C@H](N)C(=O)O)[C@@H](O)[C@H]1O [AdoHcy, S-adenosylhomocysteine], which Km (HpMTAN) is on record?
**A.** 5 µM

**Q.** With Nc1ncnc2c1ncn2[C@@H]1O[C@H](COP(=O)(O)OP(=O)(O)OP(=O)(O)O)[C@@H](O)[C@H]1O [ATP] as the compound, how does the Km (CIAP) read?
**A.** 20.5 µM

**Q.** Which Km [1] does the source give for EgtD (Mycobacterium tuberculosis H37Rv) here?
**A.** 330 ± 35 µM
